# Data taken from US9783509B2, “Six-membered C-N-linked aryl sulfide derivatives and aryl sulfoxide derivatives as pest conrol agents” (BAYER CROPSCIENCE AKTIENGESELLSCHAFT, priority 2013, dated 2017).
# Read-outs that look alike come from different tables or passages of the source.
# Legend:
# [1] = log P by reversed-phase HPLC analogously to OECD Guideline 117; type: physicochemical
# Procedure: The log P values were determined analogously to OECD Guideline 117 (EC Directive 92/69/EEC) by HPLC (high-performance liquid chromatography) using reversed-phase columns (C 18), by the following methods:
# [a] LC-MS determination in the acidic range is effected at pH 2.7 with 0.1% aqueous formic acid and acetonitrile (containing 0.1% formic acid) as eluents with a linear gradient from 10% acetonitrile to 95% acetonitrile; or with 0.025% aqueous trifluoroacetic acid and acetonitrile (containing 0.025% trifluoroacetic acid) as eluents with a linear gradient from 50% acetonitrile to 80% acetonitrile.
# [b] LC-MS determination in the neutral range is effected at pH 7.8 with 0.001 molar aqueous ammonium hydrogencarbonate solution and acetonitrile as eluents; linear gradient from 10% acetonitrile to 95% acetonitrile.
# Calibration is effected with solutions of a homologous series of unbranched alkan-2-ones (having 3 to 16 carbon atoms) with known log P values (log P values determined on the basis of the retention times by linear interpolation between two successive alkanones).
# [2] = test system: greenhouse red spider mite (Tetranychus urticae); assay: Tetranychus urticae spray test, OP-resistant (bean leaf discs); type: in vivo; details: after 6 days; for pest or weed control at 500 g/ha: Tetranychus urticae, foliar, 144 h, read-out: efficacy (spider mites killed)
# Procedure: Tetranychus urticae—Spray Test, OP-Resistant
# Solvent: 78.0 parts by weight of acetone • • 1.5 parts by weight of dimethylformamide
# Emulsifier: alkylaryl polyglycol ether
# To produce an appropriate active ingredient formulation, 1 part by weight of active ingredient is dissolved using the specified parts by weight of solvent and made up with water containing an emulsifier concentration of 1000 ppm until the desired concentration is attained. To produce further test concentrations, the preparation is diluted with emulsifier-containing water.
# Discs of bean leaves (Phaseolus vulgaris) infested by all stages of the greenhouse red spider mite (Tetranychus urticae) are sprayed with an active ingredient formulation of the desired concentration.
# After 6 days, the efficacy in % is determined. 100% means that all the spider mites have been killed; 0% means that none of the spider mites have been killed.
# [3] = reversed-phase C18 HPLC column, pH 2.7, running text, [a] acidic range, pH 2.7, read-out: log P[a]
# [4] = reversed-phase C18 HPLC column, pH 7.8, running text, [b] neutral range, pH 7.8, read-out: log P[b]
# [5] = [a] acidic range, pH 2.7, formic acid (or trifluoroacetic acid)/acetonitrile
# [6] = [b] neutral range, pH 7.8, ammonium hydrogencarbonate/acetonitrile
# [7] = reversed-phase C18 HPLC column, pH 2.7, table column, [a] acidic range, pH 2.7, formic acid (or trifluoroacetic acid)/acetonitrile, read-out: LogP[a]
# [8] = reversed-phase C18 HPLC column, pH 7.8, table column, [b] neutral range, pH 7.8, ammonium hydrogencarbonate/acetonitrile, read-out: LogP[b]
# [9] = reversed-phase C18 HPLC column, pH 2.7, running text, HCOOH, read-out: log P(HCOOH)
Molecule,efficacy (spider mites killed) ([2]; application rate 500 g/ha) [%],"LogP[a] [1, 5]","LogP[b] [1, 6]",other results
"CCOC(=O)c1cn(-c2cc(SCC(F)(F)F)c(C)cc2F)c(=O)n(C2CC2)c1=O [Ethyl 3-cyclopropyl-1-{2-fluoro-4-methyl-5-[(2,2,2-trifluoroethyl)sulphanyl]phenyl}-2,4-dioxo-1,2,3,4-tetrahydropyrimidine-5-carboxylate]",–,–,–,"chromatographic logP [1, 3]: 3.07; chromatographic logP [1, 4]: 3.02"
"CCOC(=O)NC(=O)c1nn(-c2cc(SCC(F)(F)F)c(C)cc2F)c(=O)[nH]c1=O [Ethyl [(2-{2-fluoro-4-methyl-5-[(2,2,2-trifluoroethyl)sulphanyl]phenyl}-3,5-dioxo-2,3,4,5-tetrahydro-1,2,4-triazin-6-yl)carbonyl]arbamate]",–,–,–,"chromatographic logP ([1]; [a] acidic range, pH 2.7, read-out: log P[a]): 2.5"
Cc1cc(C)c(-n2ccc(=O)[nH]c2=O)cc1SCC(F)(F)F [compound 89],100,2.18,2.25,–
Cc1cc(C)c(-n2ccc(=O)n(CC(F)(F)F)c2=O)cc1SCC(F)(F)F [compound 94],100,3.39,3.49,–
Cc1ccc(-n2ccc(=O)[nH]c2=O)cc1SCC(F)(F)F [compound 88],90,1.99,2.05,–
CCn1c(=O)cnn(-c2cc([S+]([O-])CC(F)(F)F)c(C)cc2C)c1=O (racemic) [compound 35],100,2.31,2.27,–
"Cc1cc(F)c(-n2nc(C(=O)O)c(=O)[nH]c2=O)cc1SCC(F)(F)F [2-{2-Fluoro-4-methyl-5-[(2,2,2-trifluoroethyl)sulphanyl]phenyl}-3,5-dioxo-2,3,4,5-tetrahydro-1,2,4-triazine-6-carboxylic acid]",–,–,–,"chromatographic logP [1, 3]: 1.79"
Cc1cc(C)c([S+]([O-])CC(F)(F)F)cc1-n1ncc(=O)n(Cc2ccccc2)c1=O (racemic) [compound 52],–,3.06,3.00,efficacy (spider mites killed) ([2]; application rate 100 g/ha): 90%
Cc1cc(C)c(-n2ncc(=O)n(C(C)C)c2=O)cc1SCC(F)(F)F [compound 36],100,3.88,3.81,–
"CCc1cc(CC)c([S+]([O-])CC(F)(F)F)cc1-n1c(C)c(C#N)c(=O)[nH]c1=O (stereo not shown) [Ex. No. 18, 1-{2,4-Diethyl-5-[(2,2,2-trifluoroethyl)sulphinyl]phenyl}-6-methyl-2,4-dioxo-1,2,3,4-tetrahydropyrimidine-5-carbonitrile]",–,–,–,"pest or weed control at 500 g/ha ([2]; application rate 500 g/ha): 90%; chromatographic logP [1, 3]: 2.15; chromatographic logP [1, 7]: 2.15; chromatographic logP [1, 4]: 1.55; chromatographic logP [1, 8]: 1.55"
Cc1cc(C)c(-n2ncc(=O)n(CC(F)(F)F)c2=O)cc1SCC(F)(F)F [Ex. No. 7],90,3.74,–,–
Cc1cc(F)c(-n2ccc(=O)n(CC(C)C)c2=O)cc1SCC(F)(F)F [compound 81],90,3.56,3.62,–
Cc1cc(C)c([S+]([O-])CC(F)(F)F)cc1-n1ccc(=O)[nH]c1=O (stereo not shown) [compound 99],100,1.35,1.38,–
Cc1cc(C)c(-n2ncc(=O)n(CC3CC3)c2=O)cc1SCC(F)(F)F [compound 34],100,3.94,3.87,–
"Cc1cc(C)c([S+]([O-])CC(F)(F)F)cc1-n1ncc(=O)n(CC(F)(F)F)c1=O (single isomer, unassigned) [compound 46]",–,2.72,2.66,–
"Cc1cc(F)c(-n2c(C)c(C#N)c(=O)[nH]c2=O)cc1SCC(F)(F)F [Ex. No. 17, 1-{2-Fluoro-4-methyl-5-[(2,2,2-trifluoroethyl)sulphanyl]phenyl}-6-methyl-2,4-dioxo-1,2,3,4-tetrahydropyrimidine-5-carbonitrile]",–,–,–,"pest or weed control at 500 g/ha ([2]; application rate 500 g/ha): 90%; chromatographic logP [1, 3]: 2.43; chromatographic logP [1, 7]: 2.43"
Cc1cc(C)c([S+]([O-])CC(F)(F)F)cc1-n1ccc(=O)n(C)c1=O (stereo not shown) [compound 93],100,1.68,1.7,–
"1-{2,4-Diethyl-5-[(2,2,2-trifluoroethyl)sulphinyl]phenyl}-6-methyl-2,4-dioxo-1,2,3,4-tetrahydropyrimidine-5-carbonitrile",–,–,–,log P[a] ([1]; pH 2.7): 3.16

Molecule,efficacy (spider mites killed) ([2]; application rate 500 g/ha) [%],"LogP[a] [1, 5]","LogP[b] [1, 6]",other results
"Cc1cc(F)c(-n2ncc(=O)[nH]c2=O)cc1SCC(F)(F)F [2-{2-Fluoro-4-methyl-5-[(2,2,2-trifluoroethyl)sulphanyl]phenyl}-1,2,4-triazine-3,5(2H,4H)-dione]",–,–,–,"chromatographic logP [1, 3]: 2.45"
Cc1cc(F)c(-n2ncc(=O)n(C(C)C)c2=O)cc1SCC(F)(F)F [compound 26],100,3.73,3.67,–
CCn1c(=O)ccn(-c2cc(SCC(F)(F)F)c(C)cc2C)c1=O [compound 96],100,2.98,3.07,–
"Cc1cc(F)c(-n2ncc(=O)n(CC(F)(F)F)c2=O)cc1[S+]([O-])CC(F)(F)F (single isomer, unassigned) [compound 51]",–,2.62,2.57,–
"CCO/C=C/C(=O)NC(=O)Nc1cc(SCC(F)(F)F)c(C)cc1F [(2E)-3-Ethoxy-N-({2-fluoro-4-methyl-5-[(2,2,2-trifluoroethyl)sulphanyl]phenyl}carbamoyl)-acrylamide]",–,–,–,"chromatographic logP [1, 3]: 3.78; chromatographic logP [1, 4]: 3.7"
"CCc1cc(CC)c(SCC(F)(F)F)cc1NC(C)=O [N-{2,4-Diethyl-5-[(2,2,2-trifluoroethyl)sulphanyl]phenyl}acetamide]",–,–,–,"chromatographic logP [1, 9]: 3.07"
Cc1cc(C)c([S+]([O-])CC(F)(F)F)cc1-n1ncc(=O)n(C(C)C)c1=O (racemic) [compound 38],100,2.69,2.67,–
Cc1cc(C)c(-n2ncc(=O)n(C)c2=O)cc1SCC(F)(F)F [Ex. No. 5],100,3.08,–,–
Cn1c(=O)cnn(-c2cc([S+]([O-])CC(F)(F)F)c(Cl)cc2Cl)c1=O (racemic) [compound 13],90,2.48,–,–
Cc1cc(F)c(-n2ncc(=O)n(Cc3ccccc3)c2=O)cc1SCC(F)(F)F [compound 42],100,4.04,3.93,–
Cc1ccc(-n2ncc(=O)n(C)c2=O)cc1[S+]([O-])CC(F)(F)F (racemic) [compound 24],100,1.84,1.83,–
Cc1ccc(-n2ccc(=O)[nH]c2=O)cc1[S+]([O-])CC(F)(F)F (stereo not shown) [compound 91],100,1.20,1.19,–
Cc1cc(C)c([S+]([O-])CC(F)(F)F)cc1-n1ncc(=O)n(CC2CC2)c1=O (racemic) [compound 37],100,2.77,2.73,–
"Cc1cc(F)c(-n2ncc(=O)n(C)c2=O)cc1[S+]([O-])CC(F)(F)F (single isomer, unassigned; (-)) [Ex. No. 28, (−)-2-[2-fluoro-4-methyl-5-(2,2,2-trifluoroethylsulphinyl)phenyl]-4-methyl-1,2,4-triazine-3,5-dione]",–,–,–,"chromatographic logP [1, 7]: 1.95; chromatographic logP [1, 8]: 1.9"
"CCc1cc(CC)c(SSc2cc(NC(C)=O)c(CC)cc2CC)cc1NC(C)=O [N,N′-[Disulphanediylbis(4,6-diethylbenzene-3,1-diyl)]diacetamide]",–,–,–,"chromatographic logP [1, 9]: 4.02"
CCCn1c(=O)ccn(-c2cc([S+]([O-])CC(F)(F)F)c(C)cc2F)c1=O (stereo not shown) [compound 66],90,2.17,2.25,–
"Cc1cc(F)c(-n2ncc(=O)[nH]c2=O)cc1[S+]([O-])CC(F)(F)F (stereo not shown) [Ex. No. 1, 2-{2-Fluoro-4-methyl-5-[(2,2,2-trifluoroethyl)sulphinyl]phenyl}-1,2,4-triazine-3,5(2H,4H)-dione]",–,–,–,"chromatographic logP [1, 3]: 1.58; chromatographic logP [1, 7]: 1.58"
CCn1c(=O)ccn(-c2ccc(C)c(SCC(F)(F)F)c2)c1=O [compound 83],–,2.74,2.81,–
